Assay results from patent US11369615B2, “Agent for improving mitochondrial dysfunction, preventative or therapeutic agent for diseases or symptoms caused by mitochondrial dysfunction, and applications therefor” (JICHI MEDICAL UNIVERSITY, priority 2017, dated 2022).
Where a name gives a salt, the structure may show the parent alone.

What was measured:
[1] = stated as known; cited from earlier work
[2] = test system: ME54 cells derived from a patient with Leigh syndrome; test: Oxidative stress test (BSO-induced cell death), ME54 cells; assay type: cell-based, human; conditions: BSO plus agent 1 μM, 48 hours after addition
Source text: (§1) In mitochondrial dysfunction, for example, ATP production is damaged and/or oxidative stress increases, with the result that apoptosis of cells is induced. Because of this, individuals having mitochondrial dysfunction are reported to be less tolerant to oxidative stress, compared to normal individuals (Shrader W D et al., Bioorg Med Chem Lett., Jun. 15, 2011, Vol. 21 (12), p. 3693-8, doi: 10.1016/j.bmc1.2011.04.085. electronically published on Apr. 24, 2011, PubMed PMID: 21600768). Then, oxidative stress was given to the skin fibroblasts of individual patients mentioned above to induce apoptosis. Under the conditions, compounds of the drug library were each administered to the cells. In this manner, a primary screening was carried out. Then, candidate pharmaceutical agents selected by the primary screening were subjected to a secondary screening, which is an in-vitro evaluation test such as a mitochondrial function evaluation test and a microarray expression analysis.
(§2) The oxidative stress test is a known pharmaceutical agent screening method, which was carried out under the conditions where cell death was induced by addition of L-buthionine-(S,R)-sulfoximine (BSO) (Arce P M et al., ACS Med Chem Lett., May 31, 2011, Vol. 2 (8), p. 608-13, doi: 10.1021/m1200095w. eCollection, Aug. 11, 2011, PubMed PMID: 24900356; PubMed Central PMCID: PMC4018135). BSO inhibits synthesis of glutathione serving as an antioxidant in the cells to deplete glutathione, raising the level of active oxygen within the cells. The procedure of the test is as follows. The cells to be used in the test were seeded in a 96-well plate for cell culture so as to satisfy a concentration of 5,000 cells/well and 80 μL medium/well and cultured in a CO2 incubator (37° C., 5% CO2) for 24 hours. Twenty four hours after the culture, BSO and each of the pharmaceutical agents (final concentration of 1 μM) of the drug library were together added to the cells within the wells. Forty eight hours after the addition, survival rates were determined. The survival rates were determined by measuring absorbance of formazan generated by use of cell count reagent SF (Nacalai Tesque, Inc.). As a positive control compound, idebenone (Non Patent Literature 1) approved as a therapeutic agent for Leber's hereditary optic neuritis in Europe, was used in the same concentration.
(§3) An oxidative stress test was carried out by using three fibroblast cell lines derived from patients with a mitochondrial disease and provided in 1-2. The pharmaceutical agent showing the survival rate equal to or more than that of idebenone, a positive control compound, was determined to be effective. The results of oxidative stress test of pharmaceutical agents of the drug library to KCMC10 cells are shown in FIG. 2; the results of oxidative stress test of pharmaceutical agents of the drug library to ME54 cells are shown in FIG. 3; and the results of oxidative stress test of pharmaceutical agents of the drug library to ME110 cells are shown in FIG. 4.

[3] = test system: ME110 cells derived from a patient with MELAS; test: Oxidative stress test (BSO-induced cell death), ME110 cells; assay type: cell-based, human; conditions: BSO plus agent 1 μM, 48 hours after addition
Source text: as §1, §2, §3

[4] = test system: KCMC10 cells derived from a patient with Leigh syndrome; test: Oxidative stress test (BSO-induced cell death), KCMC10 cells; assay type: cell-based, human; conditions: BSO plus agent 1 μM, 48 hours after addition
Source text: as §1, §2, §3

SMILES	ability to pass through the blood-brain barrier [1]	survival rate equal to or more than that of idebenone (determined to be effective) [2]	survival rate equal to or more than that of idebenone (determined to be effective) [3]	survival rate equal to or more than that of idebenone (determined to be effective) [4]
CN1CCc2cccc3c2C1Cc1ccc(O)c(O)c1-3 (stereo not drawn) [(I-1)]	known to be able to pass through the blood-brain barrier	–	–	–
CN1CC2c3ccccc3Oc3ccc(Cl)cc3C2C1 (stereo not drawn) [(I-2)]	known to be able to pass through the blood-brain barrier	–	–	–
CN1CCN(CCCN2c3ccccc3Sc3ccc(Cl)cc32)CC1 [Pharmaceutical agent No. 35, Prochlorperazine dimaleate]	known to be able to pass through the blood-brain barrier	effective	effective	effective
CN(C)CCCN1c2ccccc2Sc2ccccc21 [Pharmaceutical agent No. 56, Promazine hydrochloride]	known to be able to pass through the blood-brain barrier	effective	effective	effective
CN1C[C@@H]2c3ccccc3Oc3ccc(Cl)cc3[C@H]2C1 [Pharmaceutical agent No. 105, Asenapine maleate]	known to be able to pass through the blood-brain barrier	effective	effective	effective
Cc1cc2c(s1)Nc1ccccc1N=C2N1CCN(C)CC1 [Pharmaceutical agent No. 118, Olanzapine]	–	effective	effective	effective
c1ccc2c(c1)Nc1ccccc1S2 [Pharmaceutical agent No. 129, Phenothiazine]	known to be able to pass through the blood-brain barrier	effective	effective	effective
